System: allergic rhinitis and asthma
Experiment: Treatment of human patients with allergic rhinitis and/or asthma with daily atomoxetine (case reports, Examples 1-4)
Format: in vivo, humans
Procedure: A person with a 24 year history of severe allergic rhinitis, immunotherapy failure, and a 10 year history of moderate persistent asthma was given a 100 mg daily dose of atomoxetine. […]
Here, as is known in the art, FEV1 percent is the ratio of FEV1 to the predicted FEV1, which is obtained from standardized tables based on age, weight, height, and sex; FEV1 is the volume of air that is forcefully exhaled from the lungs in one second.

[1] = Example 3: person, allergic rhinitis, 80 mg daily dose

SMILES: CNCC[C@@H](Oc1ccccc1C)c1ccccc1.Cl [atomoxetine, (R)-(−)-N-methyl-3-(2-methylphenoxy)-3-phenylpropylamine]
- symptom status on atomoxetine mono therapy (Example 1: person, 60 mg daily dose, monitored during the following year): remained symptom free during the entire period of monitoring
- time until able to wean all traditional allergic rhinitis and asthma treatments (Example 1: person, allergic rhinitis and moderate persistent asthma, 60 mg daily dose): three
- symptom status on atomoxetine mono therapy (Example 2: person, 100 mg daily dose, monitored during the following 10 months): remained symptom free during the entire period of monitoring
- time until able to wean all traditional allergic rhinitis and asthma treatments (Example 2: person, severe allergic rhinitis and moderate persistent asthma, 100 mg daily dose): ≤ 10 days
- time remained symptom free with atomoxetine mono therapy [1]: at least nine
- time until able to wean all traditional allergic rhinitis treatments [1]: ≤ 7 days
- time remained symptom free with atomoxetine mono therapy (Example 4: person, 80 mg daily dose): at least 7 months
- FEV1 percent (ratio of FEV1 to predicted FEV1), pulmonary function test (Example 4: person, 80 mg daily dose, after 6 weeks of atomoxetine mono therapy, 68% on traditional treatments before): 93%
- time until able to wean all traditional allergic rhinitis and asthma treatments (Example 4: person, allergic rhinitis and moderate persistent asthma, 80 mg daily dose): ≤ 10 days
